Legend:
patients with CP = settings: cited from earlier work
[1] = test system: patients with type B pain from chronic pancreatitis; assay: Phase II dose-escalation trial: quality of life by SF-36 score; format: in vivo, human; settings: for mean SF-36 score: baseline 101.3
[2] = test system: patients with type B pain from chronic pancreatitis; assay: Phase II dose-escalation trial: daily opioid use converted to morphine equivalents; format: in vivo, human; settings: for daily opioid usage (oral morphine equivalents): baseline 136 mg
[3] = test system: patients with type B pain from chronic pancreatitis; assay: Phase II dose-escalation trial: 10 point visual analogue scale (VAS) pain assessment; format: in vivo, human; settings: for mean pain score (VAS): all patients, baseline mean VAS 5.79; for Pain (VAS 0-10), mean: 100 min post dose, baseline 6.04
[4] = 800 CU (160 mcg) twice daily for seven days, drug administration arm

Substance: depot secretin: subcutaneous depot secretin, 800 CU (160 mcg) twice daily, Tympner and Rosch 1986
- serum amylase levels (patients with CP; 800 CU (160 mcg) twice daily for seven days): strong trend towards decreased
- lactoferrin (patients with CP; [4]): decreased
- trypsin (patients with CP; [4]): decreased
- viscosity of pancreatic secretion (patients with CP; [4]): decreased
- pain levels at the end of the study (patients with CP; 800 CU (160 mcg) twice daily injection for seven days, p<0.05): significantly improved

Substance: sHS: ChiRhoStim (human secretin for injection) provided by ChiRhoClin Inc.; 27 amino acid gastrointestinal peptide hormone
- mean SF-36 score ([1]; day 4): 100.9
- mean SF-36 score ([1]; day 30): 101.5
- quality of life as measured by SF-36 with therapy ([1]; overall statement): unaltered
- daily opioid equivalent, females ([2]; Day 30, females, baseline 107 mg, p=0.53): 84 mg
- daily opioid usage (oral morphine equivalents) ([2]; day 4 post-therapy, p=0.52): 111 mg
- daily opioid usage (oral morphine equivalents) ([2]; day 30 post-therapy, p=0.34): 104 mg
- mean pain (VAS), female subgroup ([3]; day 30, females, baseline 5.42, p=0.07): 3.67
- optimal dosing based on the change in the VAS score ([3]; dose-escalation 0.05-0.8 mcg/kg IV bolus): 0.4 µg/kg
- mean pain score (VAS) ([3]; post-treatment day 4, p=0.25 vs baseline, IV bolus 3x/day for 3 days): 4.80
- mean pain score (VAS) ([3]; post-treatment day 10, p=0.19 vs baseline): 4.72
- mean pain score (VAS) ([3]; post-treatment day 30, p=0.27 vs baseline): 4.90
- Pain (VAS 0-10), mean ([3]; sHS dose 0.05 μg/kg): 4.92
- Pain (VAS 0-10), mean ([3]; sHS dose 0.1 μg/kg): 5.06
- Pain (VAS 0-10), mean ([3]; sHS dose 0.2 μg/kg): 4.92
- Pain (VAS 0-10), mean ([3]; sHS dose 0.4 μg/kg): 4.5
- Pain (VAS 0-10), mean ([3]; sHS dose 0.8 μg/kg): 5.36

Source: patent US9962430B2, “Methods for treating pain associated with chronic pancreatitis” (priority 2012, dated 2018)
